Literature values, collected in US20170049851A1, “Method for Medical Treatment” (priority 2015, published 2017).

Settings: healthy as well as unhealthy persons; some adverse effects, largely gastrointestinal, with very high intakes

COC1=C(OC)C(=O)C(C/C=C(\C)CC/C=C(\C)CC/C=C(\C)CC/C=C(\C)CC/C=C(\C)CC/C=C(\C)CC/C=C(\C)CC/C=C(\C)CC/C=C(\C)CCC=C(C)C)=C(C)C1=O [CoQ10, ubiquinone]
daily dosage found to be tolerated: up to 3600 mg
